Patent US10329294B2, “Pyrazolopyrimidine inhibitors of IRAK4 activity” (MERCK SHARP & DOHME CORP., priority 2015, dated 2019)
Structures can show the parent of a compound that is named as a salt.

Target: IRAK4 (Homo sapiens (Human), UniProt Q9NWZ3)
Assay: IRAK4 Kinase Assay
Type: biochemical
Settings: IMAP fluorescence polarization, 0.5 nM GST tagged IRAK4, 100 μM ATP, 30 minutes at 25° C.; read-out: IRAK4 IC50

Chain of IRAK4 (Q9NWZ3 whole entry): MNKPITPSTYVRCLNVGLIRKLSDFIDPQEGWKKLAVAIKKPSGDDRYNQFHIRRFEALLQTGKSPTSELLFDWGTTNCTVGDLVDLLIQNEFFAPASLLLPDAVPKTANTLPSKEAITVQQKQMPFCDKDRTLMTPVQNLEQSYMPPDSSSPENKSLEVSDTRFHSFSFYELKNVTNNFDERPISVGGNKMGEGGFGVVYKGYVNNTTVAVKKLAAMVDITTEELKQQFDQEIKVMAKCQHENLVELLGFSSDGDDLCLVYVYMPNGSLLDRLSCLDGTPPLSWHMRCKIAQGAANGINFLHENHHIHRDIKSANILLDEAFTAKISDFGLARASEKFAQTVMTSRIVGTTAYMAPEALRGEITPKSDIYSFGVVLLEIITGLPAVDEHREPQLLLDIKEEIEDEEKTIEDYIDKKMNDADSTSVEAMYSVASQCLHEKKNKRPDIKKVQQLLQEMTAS

SMILES	IC50
Cn1cc(NC(=O)c2cnn3ccc(N[C@@H]4CCCCNC4)nc23)c(C(F)(F)F)n1 (single isomer, unassigned) [Example 160, 5-[(3S)- or (3R)-azepan-3-ylamino]-N-[1-methyl-3-(trifluoromethyl)-1H-pyrazol-4-yl]pyrazolo[1,5-a]pyrimidine-3-carboxamide trifluoroacetate]	0.5 nM
O=C(Nc1ccsc1C(F)(F)F)c1cnn2ccc(N3CCCNCC3)nc12 [Example 153, 5-(1,4-diazepan-1-yl)-N-[2-(trifluoromethyl)thiophen-3-yl]pyrazolo[1,5-a]pyrimidine-3-carboxamide trifluoroacetate]	1010 nM
N[C@@H]1[C@H](Nc2ccn3ncc(C(=O)Nc4cn(CC(F)F)nc4C(F)(F)F)c3n2)CCCC1(F)F [Example 66, 5-{[(1R,2R)-2-amino-3,3-difluorocyclohexyl]amino}-N-[1-(2,2-difluoroethyl)-3-(trifluoromethyl)-1H-pyrazol-4-yl]pyrazolo[1,5-a]pyrimidine-3-carboxamide trifluoroacetate]	244 nM
Cn1cc(NC(=O)c2cnn3ccc(N4CCC[C@@H](N)C4)nc23)c(C(F)F)n1 [Example 90, 5-[(3R)-3-aminopiperidin-1-yl]-N-[3-(difluoromethyl)-1-methyl-1H-pyrazol-4-yl]pyrazolo[1,5-a]pyrimidine-3-carboxamide trifluoroacetate]	0.5 nM
Cn1cc(NC(=O)c2cnn3ccc(N4CC[C@@H]5CC[C@H](C4)N5)nc23)c(C(F)(F)F)n1 (single isomer, unassigned) [Example 94, 5-[(1R,6S)- or (1S,6R)-3,9-diazabicyclo[4.2.1]non-3-yl]-N-[1-methyl-3-(trifluoromethyl)-1H-pyrazol-4-yl]pyrazolo[1,5-a]pyrimidine-3-carboxamide trifluoroacetate]	70 nM
O=C(Nc1cn(CC(F)(F)F)nc1C(F)(F)F)c1cnn2ccc(N3CCNCC4(CC4)C3)nc12 [Example 70, 5-(5,8-diazaspiro[2.6]non-5-yl)-N-[1-(2,2,2-trifluoroethyl)-3-(trifluoromethyl)-1H-pyrazol-4-yl]pyrazolo[1,5-a]pyrimidine-3-carboxamide trifluoroacetate]	51 nM
CC(C)n1cc(NC(=O)c2cnn3ccc(N[C@@H]4CCCC(F)(F)[C@@H]4N)nc23)c(C(F)F)n1 [Example 200, 5-{[(1R,2R)-2-amino-3,3-difluorocyclohexyl]amino}-N-[3-(difluoromethyl)-1-(1-methylethyl)-1H-pyrazol-4-yl]pyrazolo[1,5-a]pyrimidine-3-carboxamide trifluoroacetate]	36 nM
Cn1cc(NC(=O)c2cnn3ccc(N[C@@H]4CNC[C@@H](F)C4)nc23)c(C(F)F)n1 [Example 256, N-[3-(difluoromethyl)-1-methyl-1H-pyrazol-4-yl]-5-{[(3S,5S)-5-fluoropiperidin-3-yl]amino}pyrazolo[1,5-a]pyrimidine-3-carboxamide]	8 nM
Cn1cc(NC(=O)c2cnn3ccc(N4C[C@@H](O)C[C@H](O)C4)nc23)c(C(F)(F)F)n1 [Example 21, 5-[(3S,5S)-3,5-dihydroxypiperidin-1-yl]-N-[1-methyl-3-(trifluoromethyl)-1H-pyrazol-4-yl]pyrazolo[1,5-a]pyrimidine-3-carboxamide]	20 nM
N#Cc1sccc1NC(=O)c1cnn2ccc(N3CCCNCC3)nc12 [Example 111, N-(2-cyanothiophen-3-yl)-5-(1,4-diazepan-1-yl)pyrazolo[1,5-a]pyrimidine-3-carboxamide trifluoroacetate]	464 nM
Cn1cc(NC(=O)c2cnn3ccc(N4C5CCC6NC5CCC64)nc23)c(C(F)(F)F)n1 [Example 102, 5-(2,7-diazatricyclo[4.4.0.0~3,8~]dec-2-yl)-N-[1-methyl-3-(trifluoromethyl)-1H-pyrazol-4-yl]pyrazolo[1,5-a]pyrimidine-3-carboxamide trifluoroacetate]	163 nM
Cn1cc(NC(=O)c2cnn3ccc(N[C@@H]4CNCC(F)(F)C4)nc23)c(C(F)(F)F)n1 (single isomer, unassigned) [Example 218, 5-{[(3S)- or (3R)-5,5-difluoropiperidin-3-yl]amino}-N-[1-methyl-3-(trifluoromethyl)-1H-pyrazol-4-yl]pyrazolo[1,5-a]pyrimidine-3-carboxamide]	685 nM
O=C(Nc1ccccc1Cl)c1cnn2ccc(N3CC4CCC3CN4)nc12 (centres unmarked) [Example 107, N-(2-chlorophenyl)-5-(2,5-diazabicyclo[2.2.2]oct-2-yl)pyrazolo[1,5-a]pyrimidine-3-carboxamide trifluoroacetate]	521 nM
Cn1cc(NC(=O)c2cnn3ccc(N4CC[C@@H](F)[C@@H](N)C4)nc23)c(C(F)F)n1 (single isomer, unassigned) [Example 178, 5-[(3S,4R)- or (3R,4S)-3-amino-4-fluoropiperidin-1-yl]-N-[3-(difluoromethyl)-1-methyl-1H-pyrazol-4-yl]pyrazolo[1,5-a]pyrimidine-3-carboxamide trifluoroacetate]	4 nM
Cn1cc(NC(=O)c2cnn3ccc(N4C[C@H]5CC[C@@H]4CN5)nc23)c(Cl)n1 (single isomer, unassigned) [Example 152, N-(3-chloro-1-methyl-1H-pyrazol-4-yl)-5-[(1S,4S)- or (1R,4R)-(2,5-diazabicyclo[2.2.2]oct-2-yl]pyrazolo[1,5-a]pyrimidine-3-carboxamide trifluoroacetate]	28 nM
Cn1cc(NC(=O)c2cnn3ccc(N4C[C@@H]5CC[C@H]4CN5)nc23)c(Cl)n1 (single isomer, unassigned) [Example 151, N-(3-chloro-1-methyl-1H-pyrazol-4-yl)-5-[(1S,4S)- or (1R,4R)-(2,5-diazabicyclo[2.2.2]oct-2-yl]pyrazolo[1,5-a]pyrimidine-3-carboxamide trifluoroacetate]	128 nM
Cn1cc(NC(=O)c2cnn3ccc(N4CCNC(C)(C)C4)nc23)c(C(F)(F)F)n1 [Example 30, 5-(3,3-dimethylpiperazin-1-yl)-N-[1-methyl-3-(trifluoromethyl)-1H-pyrazol-4-yl]pyrazolo[1,5-a]pyrimidine-3-carboxamide trifluoroacetate]	71 nM
Cn1cc(NC(=O)c2cnn3ccc(N4CC5CCC(C4)N5)nc23)c(C(F)F)n1 [Example 172, 5-(3,8-diazabicyclo[3.2.1]oct-3-yl)-N-[3-(difluoromethyl)-1-methyl-1H-pyrazol-4-yl]pyrazolo[1,5-a]pyrimidine-3-carboxamide trifluoroacetate]	1 nM
Cn1cc(NC(=O)c2cnn3ccc(N[C@H]4CC(F)(F)CC[C@H]4N)nc23)c(C(F)F)n1 (single isomer, unassigned) [Example 210, 5-{[(1S,2R)- or (1R,2S)-2-amino-5,5-difluorocyclohexyl]amino}-N-[3-(difluoromethyl)-1-methyl-1H-pyrazol-4-yl]pyrazolo[1,5-a]pyrimidine-3-carboxamide]	1 nM

Same assay, conditions: IRAK4 IC50 (nM), IMAP fluorescence polarization, 0.5 nM GST tagged IRAK4, 100 μM ATP, 30 minutes at 25° C.

SMILES	IC50
Cn1cc(NC(=O)c2cnn3ccc(N4CCNC5(CC4)CC5)nc23)c(C(F)(F)F)n1 [Example 220, 5-(4,7-diazaspiro[2.6]non-7-yl)-N-[1-methyl-3-(trifluoromethyl)-1H-pyrazol-4-yl]pyrazolo[1,5-a]pyrimidine-3-carboxamide trifluoroacetate]	153 nM
